Results as given in ChEMBL document CHEMBL1127073, “(+)-Hemipalmitoylcarnitinium strongly inhibits carnitine palmitoyltransferase-I in intact mitochondria” (J Med Chem, 1993).

Experiments:
[1] = molecular target: T1, Carnitine O-palmitoyltransferase 1, liver isoform (Rattus norvegicus, UniProt P32198); experiment: (§1) Compound was evaluated for its ability to inhibit carnitine palmitoyltransferase I activity in intact mitochondria from rat liver
T1 sequence (P32198 whole entry): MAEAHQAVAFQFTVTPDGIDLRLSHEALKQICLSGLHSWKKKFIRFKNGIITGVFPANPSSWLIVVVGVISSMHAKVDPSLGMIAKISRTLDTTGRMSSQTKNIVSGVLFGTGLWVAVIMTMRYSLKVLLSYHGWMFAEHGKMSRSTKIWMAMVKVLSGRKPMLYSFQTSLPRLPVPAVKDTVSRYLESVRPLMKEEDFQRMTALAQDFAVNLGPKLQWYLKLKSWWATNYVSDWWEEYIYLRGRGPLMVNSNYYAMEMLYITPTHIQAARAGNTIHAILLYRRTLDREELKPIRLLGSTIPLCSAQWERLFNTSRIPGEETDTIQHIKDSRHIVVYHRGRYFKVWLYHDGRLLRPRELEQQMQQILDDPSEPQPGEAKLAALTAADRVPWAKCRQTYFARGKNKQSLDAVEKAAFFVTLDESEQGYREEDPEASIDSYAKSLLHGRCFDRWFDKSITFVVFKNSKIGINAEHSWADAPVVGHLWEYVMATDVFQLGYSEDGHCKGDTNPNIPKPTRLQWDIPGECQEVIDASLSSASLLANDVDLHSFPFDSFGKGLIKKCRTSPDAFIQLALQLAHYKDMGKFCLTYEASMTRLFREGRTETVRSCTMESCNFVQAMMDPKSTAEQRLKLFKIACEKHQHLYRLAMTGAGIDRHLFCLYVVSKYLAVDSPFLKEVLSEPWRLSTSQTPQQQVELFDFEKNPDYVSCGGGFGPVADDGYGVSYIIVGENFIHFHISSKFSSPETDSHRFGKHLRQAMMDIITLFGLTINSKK

[2] = molecular target: T2, Carnitine O-palmitoyltransferase 1, muscle isoform (Rattus norvegicus, UniProt Q63704); experiment: (§2) Compound was evaluated for its ability to inhibit carnitine palmitoyltransferase I activity in intact mitochondria from rat heart
T2 sequence (Q63704 whole entry): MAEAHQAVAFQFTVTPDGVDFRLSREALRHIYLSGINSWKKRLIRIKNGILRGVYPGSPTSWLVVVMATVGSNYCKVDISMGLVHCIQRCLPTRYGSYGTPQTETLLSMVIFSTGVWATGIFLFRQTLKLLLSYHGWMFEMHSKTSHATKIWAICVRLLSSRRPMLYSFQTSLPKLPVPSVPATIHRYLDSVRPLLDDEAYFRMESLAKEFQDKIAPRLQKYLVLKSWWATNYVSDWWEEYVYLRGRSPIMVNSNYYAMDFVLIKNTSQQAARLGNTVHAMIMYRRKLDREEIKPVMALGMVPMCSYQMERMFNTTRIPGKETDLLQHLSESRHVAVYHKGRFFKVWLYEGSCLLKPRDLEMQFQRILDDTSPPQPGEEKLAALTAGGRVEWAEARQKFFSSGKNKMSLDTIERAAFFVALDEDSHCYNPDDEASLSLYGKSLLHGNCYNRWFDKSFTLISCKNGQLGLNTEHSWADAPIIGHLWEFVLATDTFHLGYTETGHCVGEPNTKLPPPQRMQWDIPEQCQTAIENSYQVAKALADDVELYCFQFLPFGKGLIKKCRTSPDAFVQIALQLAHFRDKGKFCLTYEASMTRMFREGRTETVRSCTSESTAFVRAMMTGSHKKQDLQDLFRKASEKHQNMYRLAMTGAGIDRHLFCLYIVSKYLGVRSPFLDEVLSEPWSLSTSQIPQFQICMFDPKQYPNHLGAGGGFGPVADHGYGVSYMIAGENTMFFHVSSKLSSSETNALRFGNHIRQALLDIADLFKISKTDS

[3] = compound: CCCCCCCCCCCCCCC[C@@]1(O)C[N+](C)(C)C[C@@H](CC(=O)[O-])O1; experiment: as §2
[4] = compound: CCCCCCCCCCCCCCC[C@@]1(O)C[N+](C)(C)C[C@@H](CC(=O)[O-])O1; experiment: as §1

Molecule: CCCCCCCCCCCCCCC[C@@]1(O)C[N+](C)(C)C[C@@H](CC(=O)[O-])O1 [HEMIACYLCARNITINIUM]
- Ki [1]: 4.2 µM
- Ki [2]: 2800 nM

B1: Carnitine O-palmitoyltransferase 1, muscle isoform (Rattus norvegicus), Q63704 (protein)
chain: MAEAHQAVAFQFTVTPDGVDFRLSREALRHIYLSGINSWKKRLIRIKNGILRGVYPGSPTSWLVVVMATVGSNYCKVDISMGLVHCIQRCLPTRYGSYGTPQTETLLSMVIFSTGVWATGIFLFRQTLKLLLSYHGWMFEMHSKTSHATKIWAICVRLLSSRRPMLYSFQTSLPKLPVPSVPATIHRYLDSVRPLLDDEAYFRMESLAKEFQDKIAPRLQKYLVLKSWWATNYVSDWWEEYVYLRGRSPIMVNSNYYAMDFVLIKNTSQQAARLGNTVHAMIMYRRKLDREEIKPVMALGMVPMCSYQMERMFNTTRIPGKETDLLQHLSESRHVAVYHKGRFFKVWLYEGSCLLKPRDLEMQFQRILDDTSPPQPGEEKLAALTAGGRVEWAEARQKFFSSGKNKMSLDTIERAAFFVALDEDSHCYNPDDEASLSLYGKSLLHGNCYNRWFDKSFTLISCKNGQLGLNTEHSWADAPIIGHLWEFVLATDTFHLGYTETGHCVGEPNTKLPPPQRMQWDIPEQCQTAIENSYQVAKALADDVELYCFQFLPFGKGLIKKCRTSPDAFVQIALQLAHFRDKGKFCLTYEASMTRMFREGRTETVRSCTSESTAFVRAMMTGSHKKQDLQDLFRKASEKHQNMYRLAMTGAGIDRHLFCLYIVSKYLGVRSPFLDEVLSEPWSLSTSQIPQFQICMFDPKQYPNHLGAGGGFGPVADHGYGVSYMIAGENTMFFHVSSKLSSSETNALRFGNHIRQALLDIADLFKISKTDS
- Km [3]: 500 µM

B2: Carnitine O-palmitoyltransferase 1, liver isoform (Rattus norvegicus), P32198 (protein)
chain: MAEAHQAVAFQFTVTPDGIDLRLSHEALKQICLSGLHSWKKKFIRFKNGIITGVFPANPSSWLIVVVGVISSMHAKVDPSLGMIAKISRTLDTTGRMSSQTKNIVSGVLFGTGLWVAVIMTMRYSLKVLLSYHGWMFAEHGKMSRSTKIWMAMVKVLSGRKPMLYSFQTSLPRLPVPAVKDTVSRYLESVRPLMKEEDFQRMTALAQDFAVNLGPKLQWYLKLKSWWATNYVSDWWEEYIYLRGRGPLMVNSNYYAMEMLYITPTHIQAARAGNTIHAILLYRRTLDREELKPIRLLGSTIPLCSAQWERLFNTSRIPGEETDTIQHIKDSRHIVVYHRGRYFKVWLYHDGRLLRPRELEQQMQQILDDPSEPQPGEAKLAALTAADRVPWAKCRQTYFARGKNKQSLDAVEKAAFFVTLDESEQGYREEDPEASIDSYAKSLLHGRCFDRWFDKSITFVVFKNSKIGINAEHSWADAPVVGHLWEYVMATDVFQLGYSEDGHCKGDTNPNIPKPTRLQWDIPGECQEVIDASLSSASLLANDVDLHSFPFDSFGKGLIKKCRTSPDAFIQLALQLAHYKDMGKFCLTYEASMTRLFREGRTETVRSCTMESCNFVQAMMDPKSTAEQRLKLFKIACEKHQHLYRLAMTGAGIDRHLFCLYVVSKYLAVDSPFLKEVLSEPWRLSTSQTPQQQVELFDFEKNPDYVSCGGGFGPVADDGYGVSYIIVGENFIHFHISSKFSSPETDSHRFGKHLRQAMMDIITLFGLTINSKK
- Km [4]: 350 µM
